Data as given in US12257251B2, “Use of FAK inhibitor in preparation of drug for treating tumors having NRAS mutation” (INXMED (NANJING) CO., LTD., priority 2019, dated 2025).

Columns and labels:
[1] = system: HT-1080 cells carrying NRAS, CDKN2A and IDH1 gene mutations; experiment: Mouse model of human fibrosarcoma (cell line HT-1080), subcutaneous tumors: tumor growth; format: in vivo; details: for Median tumor volume: day 13; for TGI: day 1 to day 13, from median tumor volumes; for Tumor shrinkage [X/7]: number of animals of 7 with tumor shrinkage
Procedure: • 1. Materials and Method: • 1.1. Design of Research • Treatment began when the median tumor volume was between 70-130 mm^3. • 10 mice in the control group, and 7 mice in the treatment group. • Oral gavage once daily. • Control: 0.5% hydroxyethyl cellulose • BI 853520: 50 mg/kg, 25 mg/kg, 12.5 mg/kg, 6 mg/kg, • Tumor volume was measured 3 times a week and body weight was monitored daily. • Evaluation of treatment outcome was based on absolute volume of individual tumors. • Tolerability was assessed based on changes in body weight.
BI853520: synthesized according to the method in the patent WO2010058032. The dry powder was suspended in 0.5% hydroxyethyl cellulose to obtain the desired concentration for each assay. The pH of this formulation was 3.5.
HT-1080 cells: HT-1080 cells carrying NRAS, CDKN2A and IDH1 gene mutations were obtained from ATCC (CRL-121). Cells were grown in T175 tissue culture flasks with DMEM+Glutamax supplemented with 10% heat-inactivated fetal bovine serum as medium. Cells were cultured at 37° C. and 5% CO2 in humidified air.
Mice: Athymic female BomTac, approximately 6-week-old NMRI-Foxn1^nu mice were purchased from Taconic, Denmark. After arriving in the animal room, mice were acclimated to the new environment for at least 3 days before being used for assay. The animals were housed under standard conditions (temperature 21.5±1.5° C. and 55±10% humidity) with 5 mice in each group. A standard diet and autoclaved tap water were provided for ad libitum feeding. A Datamars® T-IS 8010 FDX-B transponder implanted subcutaneously in the neck region and a LabMax® II fixed reader were used to identify each mouse.
To establish subcutaneous tumors, HT-1080 cells were harvested by trypsinization, centrifuged, washed and suspended in ice-cold PBS+1×10^8 cells/ml. Then 100 μl of cell suspension containing 1×10^7 cells was injected subcutaneously into the right flank of nude mice (1 site per mouse). When tumors were established and reached a diameter of 5-8 mm (7 days after cell injection), mice were randomly assigned to the treatment group and the control group.
BI853520 was suspended in 0.5% hydroxyethyl cellulose, which was administered intragastrically through gavage needle every day, and the dosage was 10 mL/Kg.
Tumor diameters were measured with calipers three times a week (Monday, Wednesday, and Friday). The volume of each tumor [in mm^3] was calculated according to the equation, “tumor volume=length×diameter^2×π/6”. To monitor the side effects of the treatment, the mice were checked daily for abnormalities and their body weights were measured daily. Animals were sacrificed at the end of the study (approximately two weeks after the start of treatment). During the study, animals with tumor necrosis or tumors larger than 2000 mm^3 were sacrificed ahead of schedule for ethical reasons.
At the end of the assay on day 13, statistical evaluation of tumor volume and body weight parameters was performed. Absolute tumor volume and percent change in body weight (referenced to initial weight on day 1) were used. A nonparametric approach was used, and the number of observations, median, minimum and maximum values were calculated. For a quick overview of possible treatment effects, the median tumor volume for each treatment group T and the median tumor volume for the control group C were used to calculate the TGI from day 1 to day d: TGI=100×[(Cd−C1)−(Td−T1)]/(Cd−C1) • wherein, C1, T1=median tumor volume in control and treatment groups at the start of the assay (day 1). • Cd, Td=median tumor volume in control and treatment groups at the end of the assay (day 13).
Each dose of test compound was compared to the control group using a one-sided descending wilcoxon test, taking reduction in tumor volume as a treatment effect and weight loss as a side effect. […]

[2] = system: 37 different tumors (human tumor CDX); details: across CDX models of 37 different tumors; cited from earlier work
[3] = in vivo

Q: Which Median tumor volume ([1]; 6 mg/kg qd oral gavage) does the source give for `COc1cc(C(=O)NC2CCN(C)CC2)c(F)cc1Nc1ncc(C(F)(F)F)c(Oc2cccc3c2C(=O)N(C)C3)n1` [BI853520] here?
A: The Median tumor volume was 322 mm^3.

Q: What about the TGI ([1]; 6 mg/kg qd) of the same molecule?
A: Its TGI is 70%.

Q: What about the “Tumor shrinkage [X/7]” value ([1]; 6 mg/kg qd) of the same molecule?
A: The value was 1 X/7.

Q: And the Median tumor volume ([1]; 12.5 mg/kg qd oral gavage)?
A: The Median tumor volume was 149 mm^3.

Q: And the TGI ([1]; 12.5 mg/kg qd)?
A: The TGI was 94%.

Q: And the “Tumor shrinkage [X/7]” value ([1]; 12.5 mg/kg qd)?
A: Its value is 2 X/7.

Q: And the Median tumor volume ([1]; 25 mg/kg qd oral gavage)?
A: Its Median tumor volume is 15 mm^3.

Q: What about the TGI ([1]; 25 mg/kg qd) of the same molecule?
A: Its TGI is 113%.

Q: What about the “Tumor shrinkage [X/7]” value ([1]; 25 mg/kg qd) of the same molecule?
A: Its value is 6 X/7.

Q: And the TGI ([1]; 50 mg/kg qd)?
A: The TGI was 107%.

Q: And the “Antitumor activity (in words)” value ([1]; all dose levels (6 to 50 mg/kg qd))?
A: The value was “statistically significant antitumor activity”.

Q: What about the “Regression (in words)” value ([1]; all the treatment groups (6 to 50 mg/kg qd)) of the same molecule?
A: Its value is “regression was observed”.

Q: What about the “TGI (tumor growth inhibition) span” value [2] of the same molecule?
A: Its value is 0 to 107%.

Q: And the “Highest daily dose without limiting toxicity” value [3]?
A: The value was 100 mg/kg.
